pIC50, pKd, pKi: −log10 of the molar value.
What was measured:
[1] = tested on: K562; test: cells; format: functional, cell-based; details: Homo sapiens, K562, 96 h
[2] = molecular target: T1, Bromodomain-containing protein 3 (Homo sapiens, UniProt Q15059); test: Displacement of FAM-labeled ZBA248 from BRD3 BD1 (24 to 144 amino acid residues) (unknown origin) expressed in Rosetta2 DE3 cells after 30 mins by fluorescence polarization assay
[3] = molecular target: T1, Bromodomain-containing protein 3; test: Displacement of FAM-labeled ZBA248 from BRD3 BD2 (306 to 417 amino acid residues) (unknown origin) expressed in Rosetta2 DE3 cells after 30 mins by fluorescence polarization assay
[4] = tested on: MV4-11; test: cells; format: functional, cell-based; details: Homo sapiens, MV4-11, 96 h
[5] = molecular target: T1, Bromodomain-containing protein 3; test: biochemical; format: cell-based
[6] = molecular target: CREB-binding protein (Homo sapiens, UniProt Q92793); test: Binding affinity to biotinylated CREBBP (1043 to 1159 amino acid residues) (unknown origin) expressed in Rosetta2 DE3 cells by bio-layer interferometry method
Chain of CREB-binding protein (Q92793 whole entry, the tested form may be a part): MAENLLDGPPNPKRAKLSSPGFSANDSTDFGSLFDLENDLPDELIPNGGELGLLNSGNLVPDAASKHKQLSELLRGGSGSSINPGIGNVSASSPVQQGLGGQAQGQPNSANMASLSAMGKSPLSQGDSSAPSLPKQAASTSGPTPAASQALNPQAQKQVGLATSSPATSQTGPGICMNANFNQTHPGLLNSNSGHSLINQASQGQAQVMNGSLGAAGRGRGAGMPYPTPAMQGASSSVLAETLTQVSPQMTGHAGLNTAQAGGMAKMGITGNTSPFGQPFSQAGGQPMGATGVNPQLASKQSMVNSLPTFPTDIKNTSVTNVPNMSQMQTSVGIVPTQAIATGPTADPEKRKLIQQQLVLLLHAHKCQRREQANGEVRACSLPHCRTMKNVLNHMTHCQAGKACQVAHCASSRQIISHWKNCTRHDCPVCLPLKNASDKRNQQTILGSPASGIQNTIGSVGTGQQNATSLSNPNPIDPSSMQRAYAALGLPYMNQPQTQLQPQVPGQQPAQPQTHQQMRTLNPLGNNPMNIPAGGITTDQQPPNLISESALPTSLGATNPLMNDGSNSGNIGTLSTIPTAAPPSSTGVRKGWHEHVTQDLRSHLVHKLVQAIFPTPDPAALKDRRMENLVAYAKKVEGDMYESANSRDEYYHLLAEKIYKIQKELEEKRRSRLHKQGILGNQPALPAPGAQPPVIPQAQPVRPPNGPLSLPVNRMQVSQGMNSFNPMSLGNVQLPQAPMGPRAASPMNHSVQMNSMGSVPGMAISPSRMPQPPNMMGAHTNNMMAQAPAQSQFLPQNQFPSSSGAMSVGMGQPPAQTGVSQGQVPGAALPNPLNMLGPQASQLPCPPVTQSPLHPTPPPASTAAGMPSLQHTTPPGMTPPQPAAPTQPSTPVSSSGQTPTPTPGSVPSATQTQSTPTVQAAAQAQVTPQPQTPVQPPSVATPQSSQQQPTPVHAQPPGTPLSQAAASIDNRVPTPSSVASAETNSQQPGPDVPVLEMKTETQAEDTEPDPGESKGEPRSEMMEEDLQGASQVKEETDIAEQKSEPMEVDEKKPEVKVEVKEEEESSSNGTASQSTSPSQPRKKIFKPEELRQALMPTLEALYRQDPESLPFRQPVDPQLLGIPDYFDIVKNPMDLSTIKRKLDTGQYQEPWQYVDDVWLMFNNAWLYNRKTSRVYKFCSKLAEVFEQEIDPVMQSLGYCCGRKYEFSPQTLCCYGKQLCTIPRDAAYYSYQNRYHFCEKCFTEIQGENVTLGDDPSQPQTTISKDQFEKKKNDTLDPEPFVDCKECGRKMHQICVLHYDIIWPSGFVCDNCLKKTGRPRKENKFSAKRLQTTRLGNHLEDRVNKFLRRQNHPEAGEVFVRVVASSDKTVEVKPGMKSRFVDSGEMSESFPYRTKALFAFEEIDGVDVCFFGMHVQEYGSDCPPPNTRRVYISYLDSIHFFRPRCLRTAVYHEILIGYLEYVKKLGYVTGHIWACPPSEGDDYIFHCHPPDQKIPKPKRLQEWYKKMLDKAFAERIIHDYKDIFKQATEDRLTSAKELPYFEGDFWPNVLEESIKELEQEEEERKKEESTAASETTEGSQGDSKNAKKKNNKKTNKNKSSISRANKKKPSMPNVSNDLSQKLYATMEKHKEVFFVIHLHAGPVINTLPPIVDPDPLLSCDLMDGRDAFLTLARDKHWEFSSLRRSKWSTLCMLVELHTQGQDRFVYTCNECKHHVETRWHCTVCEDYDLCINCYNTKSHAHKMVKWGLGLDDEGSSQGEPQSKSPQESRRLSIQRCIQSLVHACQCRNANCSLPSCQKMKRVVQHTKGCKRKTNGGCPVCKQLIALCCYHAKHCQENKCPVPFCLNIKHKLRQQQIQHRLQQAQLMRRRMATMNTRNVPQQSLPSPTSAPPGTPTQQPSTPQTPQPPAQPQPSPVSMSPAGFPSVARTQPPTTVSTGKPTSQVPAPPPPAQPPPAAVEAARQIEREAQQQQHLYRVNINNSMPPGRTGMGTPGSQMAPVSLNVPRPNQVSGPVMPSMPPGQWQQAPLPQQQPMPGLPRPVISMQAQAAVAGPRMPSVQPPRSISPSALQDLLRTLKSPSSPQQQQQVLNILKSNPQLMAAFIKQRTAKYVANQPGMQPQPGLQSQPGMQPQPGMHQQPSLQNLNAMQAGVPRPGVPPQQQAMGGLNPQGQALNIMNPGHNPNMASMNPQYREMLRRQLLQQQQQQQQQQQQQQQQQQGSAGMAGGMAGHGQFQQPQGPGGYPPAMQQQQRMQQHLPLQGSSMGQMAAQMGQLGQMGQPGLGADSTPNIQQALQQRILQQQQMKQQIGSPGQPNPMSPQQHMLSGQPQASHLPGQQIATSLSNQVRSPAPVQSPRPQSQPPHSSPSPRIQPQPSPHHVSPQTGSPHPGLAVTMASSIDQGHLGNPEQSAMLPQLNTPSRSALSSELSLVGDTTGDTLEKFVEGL

[7] = molecular target: T1, Bromodomain-containing protein 3; test: Binding affinity to biotinylated BRD3 BD2 (306 to 417 amino acid residues) (unknown origin) expressed in Rosetta2 DE3 cells by bio-layer interferometry method
[8] = molecular target: T2, ATPase family AAA domain-containing protein 2 (Homo sapiens, UniProt Q6PL18); test: Binding affinity to biotinylated ATAD2A (981 to 1108 amino acid residues) (unknown origin) expressed in Rosetta2 DE3 cells by bio-layer interferometry method
T2 sequence (Q6PL18 whole entry): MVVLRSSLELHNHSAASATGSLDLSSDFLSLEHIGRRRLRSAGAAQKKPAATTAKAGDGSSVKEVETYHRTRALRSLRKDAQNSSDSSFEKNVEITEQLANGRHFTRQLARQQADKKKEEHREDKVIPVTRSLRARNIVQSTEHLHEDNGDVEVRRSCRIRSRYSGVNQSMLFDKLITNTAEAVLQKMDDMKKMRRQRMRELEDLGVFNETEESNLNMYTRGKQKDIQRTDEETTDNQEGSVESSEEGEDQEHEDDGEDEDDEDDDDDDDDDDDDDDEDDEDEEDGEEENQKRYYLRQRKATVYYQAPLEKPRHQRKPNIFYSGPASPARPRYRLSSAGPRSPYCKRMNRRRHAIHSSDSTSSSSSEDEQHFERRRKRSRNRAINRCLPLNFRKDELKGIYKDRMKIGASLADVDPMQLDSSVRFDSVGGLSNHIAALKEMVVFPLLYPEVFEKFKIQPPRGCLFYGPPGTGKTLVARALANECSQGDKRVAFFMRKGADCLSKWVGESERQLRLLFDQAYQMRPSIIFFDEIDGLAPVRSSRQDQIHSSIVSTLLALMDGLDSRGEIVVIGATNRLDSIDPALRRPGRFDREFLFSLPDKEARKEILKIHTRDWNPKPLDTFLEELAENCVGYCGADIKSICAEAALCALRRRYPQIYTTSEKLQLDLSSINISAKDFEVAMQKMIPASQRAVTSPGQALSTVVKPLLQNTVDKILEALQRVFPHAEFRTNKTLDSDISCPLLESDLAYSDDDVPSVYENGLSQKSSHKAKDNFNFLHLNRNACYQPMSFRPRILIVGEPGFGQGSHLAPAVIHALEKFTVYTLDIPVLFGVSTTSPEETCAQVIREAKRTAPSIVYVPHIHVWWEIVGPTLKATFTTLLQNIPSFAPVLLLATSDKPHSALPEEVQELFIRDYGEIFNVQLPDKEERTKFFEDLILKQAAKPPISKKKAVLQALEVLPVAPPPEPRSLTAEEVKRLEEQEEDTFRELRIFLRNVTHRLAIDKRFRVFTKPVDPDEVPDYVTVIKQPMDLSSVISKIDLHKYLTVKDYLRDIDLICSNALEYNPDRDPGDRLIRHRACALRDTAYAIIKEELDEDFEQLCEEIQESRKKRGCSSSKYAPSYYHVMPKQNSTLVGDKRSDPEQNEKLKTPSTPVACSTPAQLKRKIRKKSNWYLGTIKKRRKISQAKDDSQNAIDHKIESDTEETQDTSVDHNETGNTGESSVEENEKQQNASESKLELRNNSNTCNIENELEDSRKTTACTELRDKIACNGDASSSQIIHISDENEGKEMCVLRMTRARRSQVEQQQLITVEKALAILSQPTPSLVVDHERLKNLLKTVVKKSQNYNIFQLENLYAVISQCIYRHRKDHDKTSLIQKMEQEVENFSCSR

[9] = molecular target: T3, Bromodomain-containing protein 4 (Homo sapiens, UniProt O60885); test: Displacement of FAM-labeled ZBA248 from BRD4 BD2 (333 to 460 amino acid residues) (unknown origin) expressed in Rosetta2 DE3 cells after 30 mins by fluorescence polarization assay
[10] = molecular target: T3, Bromodomain-containing protein 4; test: Displacement of FAM-labeled ZBA248 from BRD4 BD1 (44 to 168 amino acid residues) (unknown origin) expressed in Rosetta2 DE3 cells after 30 mins by fluorescence polarization assay
[11] = molecular target: T4, Bromodomain-containing protein 2 (Homo sapiens, UniProt P25440); test: Displacement of FAM-labeled ZBA248 from BRD2 BD1 (72 to 205 amino acid residues) (unknown origin) expressed in Rosetta2 DE3 cells after 30 mins by fluorescence polarization assay
T4 sequence (P25440 whole entry, the tested form may be a part): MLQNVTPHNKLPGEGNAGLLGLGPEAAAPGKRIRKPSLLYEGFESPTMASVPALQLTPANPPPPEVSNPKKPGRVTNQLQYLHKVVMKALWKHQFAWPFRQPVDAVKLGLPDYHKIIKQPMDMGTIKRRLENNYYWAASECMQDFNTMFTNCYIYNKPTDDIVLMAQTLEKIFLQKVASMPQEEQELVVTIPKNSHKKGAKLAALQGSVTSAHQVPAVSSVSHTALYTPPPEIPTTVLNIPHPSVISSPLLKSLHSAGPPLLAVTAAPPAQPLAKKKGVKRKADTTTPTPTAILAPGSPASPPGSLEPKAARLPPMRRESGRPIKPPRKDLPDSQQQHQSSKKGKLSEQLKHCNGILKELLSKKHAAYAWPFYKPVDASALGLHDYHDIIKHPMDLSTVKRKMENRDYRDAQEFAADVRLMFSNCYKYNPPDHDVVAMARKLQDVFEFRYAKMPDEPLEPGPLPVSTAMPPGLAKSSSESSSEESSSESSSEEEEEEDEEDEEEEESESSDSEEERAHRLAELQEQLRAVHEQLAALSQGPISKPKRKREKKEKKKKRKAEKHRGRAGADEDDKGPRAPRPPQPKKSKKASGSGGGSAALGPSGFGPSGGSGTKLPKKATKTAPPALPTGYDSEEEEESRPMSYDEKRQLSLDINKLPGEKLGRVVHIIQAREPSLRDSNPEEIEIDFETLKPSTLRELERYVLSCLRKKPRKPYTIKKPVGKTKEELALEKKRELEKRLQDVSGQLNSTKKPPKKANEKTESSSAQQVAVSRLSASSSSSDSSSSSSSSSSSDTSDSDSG

[12] = molecular target: T4, Bromodomain-containing protein 2; test: Displacement of FAM-labeled ZBA248 from BRD2 BD2 (349 to 460 amino acid residues) (unknown origin) expressed in Rosetta2 DE3 cells after 30 mins by fluorescence polarization assay

T1 sequence (Q15059 whole entry, the tested form may be a part): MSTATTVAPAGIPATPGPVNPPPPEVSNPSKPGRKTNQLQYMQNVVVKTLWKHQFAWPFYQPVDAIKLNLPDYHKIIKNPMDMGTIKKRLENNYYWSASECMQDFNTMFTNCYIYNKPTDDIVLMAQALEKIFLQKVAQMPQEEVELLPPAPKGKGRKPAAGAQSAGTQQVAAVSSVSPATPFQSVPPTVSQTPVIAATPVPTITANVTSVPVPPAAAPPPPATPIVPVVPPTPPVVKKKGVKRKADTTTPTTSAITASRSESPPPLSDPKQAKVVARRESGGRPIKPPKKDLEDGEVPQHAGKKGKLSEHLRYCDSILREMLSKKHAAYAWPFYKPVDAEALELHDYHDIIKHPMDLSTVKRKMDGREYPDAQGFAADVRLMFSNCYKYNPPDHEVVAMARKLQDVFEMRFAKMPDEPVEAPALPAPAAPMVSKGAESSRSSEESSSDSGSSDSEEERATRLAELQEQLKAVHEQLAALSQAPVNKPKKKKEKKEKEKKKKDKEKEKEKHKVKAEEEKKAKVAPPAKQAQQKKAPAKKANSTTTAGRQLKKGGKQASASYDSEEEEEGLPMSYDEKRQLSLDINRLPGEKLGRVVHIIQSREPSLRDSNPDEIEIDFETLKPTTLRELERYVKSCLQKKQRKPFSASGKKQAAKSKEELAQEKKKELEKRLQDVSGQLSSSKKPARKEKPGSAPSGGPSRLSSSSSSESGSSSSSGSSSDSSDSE

SMILES	pIC50 [9]	pIC50 [10]	pKi [9]	pKi [10]	also measured
Cc1sc2c(c1C)C(c1ccc(Cl)cc1)=N[C@@H](CC(=O)OC(C)(C)C)c1nnc(C)n1-2					pIC50 [1]: < 5.70
COc1cc2c(cc1-c1c(C)noc1C)ncc1[nH]c(=O)n([C@H](C)c3ccccn3)c12					pKi [2]: 8.14; pKi [3]: 7.65; pIC50 [1]: < 5.70; pIC50 [4]: 6.79; pKd [5]: 7.53; pKd [6]: 5.51; pKd [7]: 7.39; pKd [8]: < 5.00
COc1cc2c(cc1-c1c(C)noc1C)[nH]c1ccncc12	5.57	5.34			
COc1cc2c(cc1-c1c(C)noc1C)[nH]c1ccnc(Cl)c12	6.24	6.06			
CCc1noc(C)c1-c1cc2[nH]c3ccnc(Cl)c3c2cc1OC	5.74	5.41	6.32	5.91	
CCc1onc(C)c1-c1cc2[nH]c3ccnc(Cl)c3c2cc1OC	4.86	5.02	5.66	5.55	
CCc1noc(CC)c1-c1cc2[nH]c3ccnc(Cl)c3c2cc1OC	4.13	< 5.00	5.08	< 5.00	
COc1cc2c(cc1-c1c(C)n[nH]c1C)[nH]c1ccnc(Cl)c12	5.59	5.31	6.06	5.76	
COc1cc2c(cc1-c1c(C)nn(C)c1C)[nH]c1ccnc(Cl)c12	5.21	4.85	5.71	5.31	
COc1cc2c(cc1-c1c(C)noc1C)[nH]c1ccnc(-c3c(C)noc3C)c12	6.66	6.87	7.15	7.32	
COc1cc2c(cc1-c1c(C)noc1C)[nH]c1ccnc(-c3c(C)n[nH]c3C)c12	6.49	6.56			
COc1cc2c(cc1-c1c(C)noc1C)[nH]c1ccnc(-c3cn[nH]c3)c12	6.18	6.15			
COc1cc2c(cc1-c1c(C)noc1C)[nH]c1ccnc(-c3c(C)nn(-c4ccccc4)c3C)c12	6.50	6.52	7.01	6.99	
CCc1n[nH]c(CC)c1-c1nccc2[nH]c3cc(-c4c(C)noc4C)c(OC)cc3c12	7.21	6.88	7.79	7.36	pIC50 [1]: < 5.70; pKi [11]: 7.68; pKi [12]: 7.81
CCNC(=O)C[C@@H]1N=C(c2ccc(Cl)cc2)c2cc(OC)ccc2-n2c(C)nnc21 [MOLIBRESIB]					pKd [6]: < 5.00; pKd [8]: < 5.00

— ChEMBL document CHEMBL3580597 (J Med Chem, 2015)
